Reference: publication PMC8048572, “Release of Soybean Isoflavones by Using a β‐Glucosidase from Alicyclobacillus herbarius” (Chembiochem, 2020)

Experiments:
[1] = target: T1, AheGH1 (Paenalicyclobacillus herbarius, UniProt A0A8I3B065); experiment: spectrophotometric pNPG hydrolysis at […] nm; format: biochemical; conditions: 10 mM pNPG, 50 mM HEPES, pH 7.4, 25 °C; product inhibitor
T1 construct: codon-optimised synthetic gene, C-terminal poly-His tag (pCH93b), E. coli BL21(DE3)
T1 sequence (A0A8I3B065 1-452): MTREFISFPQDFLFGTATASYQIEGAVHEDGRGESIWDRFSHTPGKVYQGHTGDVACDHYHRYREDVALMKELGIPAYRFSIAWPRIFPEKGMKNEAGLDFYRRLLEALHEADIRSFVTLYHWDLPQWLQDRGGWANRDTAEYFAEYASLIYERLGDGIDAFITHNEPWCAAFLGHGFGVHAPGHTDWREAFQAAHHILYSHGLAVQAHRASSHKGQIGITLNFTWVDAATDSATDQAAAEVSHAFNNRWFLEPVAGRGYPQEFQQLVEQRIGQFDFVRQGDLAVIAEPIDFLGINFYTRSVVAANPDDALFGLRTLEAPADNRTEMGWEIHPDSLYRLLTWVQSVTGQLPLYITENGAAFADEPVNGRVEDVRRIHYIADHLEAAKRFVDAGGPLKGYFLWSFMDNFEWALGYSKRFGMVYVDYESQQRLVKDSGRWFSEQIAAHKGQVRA

[2] = target: T1, AheGH1; experiment: spectrophotometric p-nitrophenol release at […] nm, substrate inhibition fit; format: biochemical; conditions: 50 mM HEPES, pH 7.4, 25 °C; substrate inhibition constant
[3] = substrate: O=[N+]([O-])c1ccc(O[C@@H]2O[C@H](CO)[C@@H](O)[C@H](O)[C@H]2O)cc1; experiment: purified protein; conditions: 50 mM HEPES, pH 7.4, 25 °C

OC[C@H]1OC(O)[C@H](O)[C@@H](O)[C@@H]1O (stereo partly shown) [glucose]
% activity retained at 10 % (w/v) glucose [1]: 65%

O=[N+]([O-])c1ccc(O[C@@H]2O[C@H](CO)[C@@H](O)[C@H](O)[C@H]2O)cc1 [pNPG, p‐nitrophenyl‐β‐D‐glucopyranoside]
K i [2]: 37 ± 6 mM

B1: AheGH1 (Paenalicyclobacillus herbarius) (protein)
chain: MTREFISFPQDFLFGTATASYQIEGAVHEDGRGESIWDRFSHTPGKVYQGHTGDVACDHYHRYREDVALMKELGIPAYRFSIAWPRIFPEKGMKNEAGLDFYRRLLEALHEADIRSFVTLYHWDLPQWLQDRGGWANRDTAEYFAEYASLIYERLGDGIDAFITHNEPWCAAFLGHGFGVHAPGHTDWREAFQAAHHILYSHGLAVQAHRASSHKGQIGITLNFTWVDAATDSATDQAAAEVSHAFNNRWFLEPVAGRGYPQEFQQLVEQRIGQFDFVRQGDLAVIAEPIDFLGINFYTRSVVAANPDDALFGLRTLEAPADNRTEMGWEIHPDSLYRLLTWVQSVTGQLPLYITENGAAFADEPVNGRVEDVRRIHYIADHLEAAKRFVDAGGPLKGYFLWSFMDNFEWALGYSKRFGMVYVDYESQQRLVKDSGRWFSEQIAAHKGQVRA
Km [3]: 1400 ± 100 µM | kcat [3]: 2.7 ± 0.1 s⁻¹
